Where a name gives a salt, the structure may show the parent alone.
Assays:
[1] = system: Staphylococcus aureus MW2 delta-mecA (mecA-); test: IC50 (growth, competition assay); details: cefoxitin: subinhibitory
Outline: (§1)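 Two fluorescent S. aureus MW2 strains, one carrying and one lacking the resistance gene, were pre-induced, mixed 1:1 and grown unshaken in LB in 1536-well plates for 20 h at 37 °C and 90% humidity with a subinhibitory drug dose set each day. Compounds were tested on five- or nine-point 2-fold gradients in two dye-swapped replicates. DsRed (540/590) and GFP (485/520) signals were scaled per plate between the medians of single-strain controls, and No Treatment was then set to 0.5. For each strain, IC50 was taken as the dose that halved the No Treatment signal, or else the maximal signal.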

[2] = system: Staphylococcus aureus MW2 (mecA+); test: IC50 (growth, competition assay); details: cefoxitin: subinhibitory
Outline: as §1

Structure (SMILES)	IC50 ([1]; fluorescent label: DsRed)	IC50 ([1]; fluorescent label: GFP)	IC50 ([2]; fluorescent label: DsRed)	IC50 ([2]; fluorescent label: GFP)
CC[C@H]1OC(=O)C[C@@H](O)[C@H](C)[C@@H](O[C@@H]2O[C@H](C)[C@@H](O[C@H]3C[C@@](C)(O)[C@@H](O)[C@H](C)O3)[C@H](N(C)C)[C@H]2O)[C@@H](CC=O)C[C@@H](C)C(=O)/C=C/C(C)=C/[C@@H]1CO[C@@H]1O[C@H](C)[C@@H](O)[C@@H](OC)[C@H]1OC [Tylosin tartrate]	< 9.85 µM	< 9.85 µM	< 9.85 µM	< 9.85 µM
CC(C)(C)c1cc(C=C(C#N)C#N)cc(C(C)(C)C)c1O [Tyrphostin A9]	35.4 µM	< 9.85 µM	< 9.85 µM	26 µM
CC(C)(C)c1cc(/C=C(\C#N)C(N)=S)cc(C(C)(C)C)c1O [Tyrphostin AG 879 (AG 879)]	< 9.85 µM	< 9.85 µM	< 9.85 µM	14 µM
COc1cccc(C2(O)CCCCC2CN(C)C)c1 (stereo unspecified) [ULTRAM]	101 µM	60.8 µM	131 µM	135 µM
CCn1cc(C(=O)O)c(=O)c2cc3c(cc21)OCO3 [UTIBID]	15.2 µM	< 9.85 µM	15.5 µM	15 µM
Clc1ccc(C(Cn2ccnc2)OCc2ccsc2Cl)c(Cl)c1 (stereo unspecified) [VAGISTAT]	16.9 µM	15 µM	29.6 µM	30.6 µM
CN[C@H](CC(C)C)C(=O)N[C@H]1C(=O)N[C@@H](CC(N)=O)C(=O)N[C@H]2C(=O)N[C@H]3C(=O)N[C@H](C(=O)N[C@H](C(=O)O)c4cc(O)cc(O)c4-c4cc3ccc4O)[C@H](O)c3ccc(c(Cl)c3)Oc3cc2cc(c3O[C@@H]2O[C@H](CO)[C@@H](O)[C@H](O)[C@H]2O[C@H]2C[C@](C)(N)[C@H](O)[C@H](C)O2)Oc2ccc(cc2Cl)[C@H]1O [VANCOCIN]	< 9.85 µM	< 9.85 µM	< 9.85 µM	< 9.85 µM
O=C(O[C@H]1CN2CCC1CC2)N1CCc2ccccc2[C@@H]1c1ccccc1 [VESICARE]	31.8 µM	19.9 µM	47.9 µM	68.2 µM
Oc1c(I)cc(Cl)c2cccnc12 [VIOFORM]	< 9.85 µM	< 9.85 µM	15 µM	14.9 µM
O=c1[nH]c(=O)n([C@H]2C[C@H](O)[C@@H](CO)O2)cc1C(F)(F)F [VIROPTIC]	< 9.85 µM	< 9.85 µM	59 µM	108 µM
COc1cc([C@@H]2c3cc4c(cc3[C@@H](O[C@@H]3O[C@@H]5CO[C@@H](c6cccs6)O[C@H]5[C@H](O)[C@H]3O)[C@H]3COC(=O)[C@H]23)OCO4)cc(OC)c1O [VUMON]	< 9.85 µM	< 9.85 µM	< 9.85 µM	< 9.85 µM
CC(C)(C)C#Cc1cc(N(C(=O)[C@H]2CC[C@H](C)CC2)[C@H]2CC[C@H](O)CC2)c(C(=O)O)s1 [VX-222]	16.8 µM	17.4 µM	25.7 µM	53.7 µM
CN[C@H](CC(C)C)C(=O)N[C@H]1C(=O)N[C@@H](CC(N)=O)C(=O)N[C@H]2C(=O)N[C@H]3C(=O)N[C@H](C(=O)N[C@H](C(=O)O)c4cc(O)cc(O)c4-c4cc3ccc4O)[C@H](O)c3ccc(c(Cl)c3)Oc3cc2cc(c3O[C@@H]2O[C@H](CO)[C@@H](O)[C@H](O)[C@H]2O[C@H]2C[C@](C)(N)[C@H](O)[C@H](C)O2)Oc2ccc(cc2Cl)[C@H]1O [Vancomycin HCl (Vancocin)]	< 9.85 µM	< 9.85 µM	< 9.85 µM	< 9.85 µM
CCC[C@H](NC(=O)/C(C#N)=C/c1cccc(Br)n1)c1ccccc1 [WP1130]	2.28 µM	0.904 µM	13.7 µM	27.5 µM
COC(=O)Nc1ccc(-c2nc(N3CCOCC3)c3cnn(C4CCN(Cc5cccnc5)CC4)c3n2)cc1 [WYE-687]	15.1 µM	< 9.85 µM	49.6 µM	74.8 µM
CCC(=O)Nc1cccc(Oc2nc(Nc3ccc(N4CCN(C)CC4)cc3OC)ncc2Cl)c1 [WZ4003]	> 150 µM	> 150 µM	> 150 µM	> 150 µM
C=CC(=O)Nc1cccc(Sc2nc(Nc3ccc(N4CCN(C)CC4)cc3)ncc2Cl)c1 [WZ8040]	2.02 µM	2.67 µM	17.1 µM	28.9 µM

Structure (SMILES)	IC50 ([1]; fluorescent label: DsRed)	IC50 ([1]; fluorescent label: GFP)	IC50 ([2]; fluorescent label: DsRed)	IC50 ([2]; fluorescent label: GFP)
O=C(NC[C@H]1CN(c2ccc(N3CCOCC3=O)cc2)C(=O)O1)c1ccc(Cl)s1 [XARELTO]	< 9.85 µM	< 9.85 µM	< 9.85 µM	< 9.85 µM
CO[C@H]1/C=C/O[C@@]2(C)Oc3c(C)c(O)c4c(O)c(c5c(nc6cc(C)ccn65)c4c3C2=O)NC(=O)/C(C)=C\C=C\[C@H](C)[C@H](O)[C@@H](C)[C@@H](O)[C@@H](C)[C@H](OC(C)=O)[C@@H]1C [XIFAXAN]	< 9.85 µM	< 9.85 µM	< 9.85 µM	< 9.85 µM
O=S(=O)(O)c1cc(I)c(O)c2ncccc12 [YATREN]	49.8 µM	59.8 µM	84.9 µM	102 µM
O=C(N[C@@H](Cc1ccccc1)C(=O)CCl)OCc1ccccc1 [Z-L-Phe chloromethyl ketone]	< 9.85 µM	< 9.85 µM	< 9.85 µM	< 9.85 µM
C[C@@H]1CN(c2c(F)c(N)c3c(=O)c(C(=O)O)cn(C4CC4)c3c2F)C[C@H](C)N1 [ZAGAM]	< 9.85 µM	< 9.85 µM	< 9.85 µM	< 9.85 µM
CN(N=O)C(=O)N[C@@H]1[C@@H](O)[C@H](O)[C@@H](CO)O[C@@H]1O [ZANOSAR]	< 9.85 µM	< 9.85 µM	< 9.85 µM	< 9.85 µM
O=C1[C@H](CC[C@H](O)c2ccc(F)cc2)[C@@H](c2ccc(O)cc2)N1c1ccc(F)cc1 [ZETIA]	25.9 µM	24.8 µM	103 µM	105 µM
CO/N=C(\C(=O)N[C@@H]1C(=O)N2C(C(=O)O)=C(COC(N)=O)CS[C@H]12)c1ccco1 [ZINACEF]	< 9.85 µM	< 9.85 µM	21.3 µM	19.3 µM
[O-][n+]1ccccc1[S-].[O-][n+]1ccccc1[S-].[Zn+2] [ZINC OMADINE]	< 9.85 µM	< 9.85 µM	< 9.85 µM	< 9.85 µM
CC[C@H]1OC(=O)[C@H](C)[C@@H](O[C@H]2C[C@@](C)(OC)[C@@H](O)[C@H](C)O2)[C@H](C)[C@@H](O[C@@H]2O[C@H](C)C[C@H](N(C)C)[C@H]2O)[C@](C)(O)C[C@@H](C)CN(C)[C@H](C)[C@@H](O)[C@]1(C)O [ZITHROMAX]	< 9.85 µM	< 9.85 µM	< 9.85 µM	15.7 µM
CCC(C)(C)C(=O)O[C@H]1C[C@@H](C)C=C2C=C[C@H](C)[C@H](CC[C@@H]3C[C@@H](O)CC(=O)O3)[C@H]21 [ZOCOR]	47.8 µM	57.6 µM	129 µM	115 µM
CN[C@H]1CC[C@@H](c2ccc(Cl)c(Cl)c2)c2ccccc21 [ZOLOFT]	31.1 µM	15.5 µM	103 µM	106 µM
CC(=O)NC[C@H]1CN(c2ccc(N3CCOCC3)c(F)c2)C(=O)O1 [ZYVOX]	< 9.85 µM	< 9.85 µM	< 9.85 µM	< 9.85 µM
[O-][n+]1ccccc1[S-].[O-][n+]1ccccc1[S-].[Zn+2] [Zinc Pyrithione]	< 9.85 µM	< 9.85 µM	< 9.85 µM	< 9.85 µM
COc1c(O)cc2oc3cc(O)c(CC=C(C)C)c(O)c3c(=O)c2c1CC=C(C)C [alpha-MANGOSTIN]	< 9.85 µM	< 9.85 µM	< 9.85 µM	< 9.85 µM
CC1(C)CCC2=C(O1)c1ccccc1C(=O)C2=O [beta-Lapachone]	< 9.85 µM	< 9.85 µM	12.9 µM	28.3 µM
OCCN1CCN(CC/C=C2/c3ccccc3Sc3ccc(C(F)(F)F)cc32)CC1 [cis-(Z)-Flupenthixol dihydrochloride]	12.9 µM	< 9.85 µM	34.6 µM	42.6 µM

Reference: the supplement of paper PMC7695840
